Assay results reported in the OligoGym collection.
Oligonucleotides are given in HELM: sugar(base)linkage, 5' to 3'; d 2'-deoxyribose, r ribose, m 2'-O-methylribose, p phosphate. ss, as = sense and antisense strand
Also: test concentration or dose not given here.

Each substance was assayed against CDC34 (assay: reporter assay of Huesken 2005). Conditions: siRNA.
Work on “RNA1{r(A)p.r(C)p.r(G)p.r(U)p.r(C)p.r(A)p.r(G)p.r(G)p.r(A)p.r(C)p.r(C)p.r(A)p.r(U)p.r(U)p.r(C)p.r(U)p.r(C)p.r(C)p.r(U)p.d(T)p.d(T)}|RNA2{r(A)p.r(G)p.r(G)p.r(A)p.r(G)p.r(A)p.r(A)p.r(U)p.r(G)p.r(G)p.r(U)p.r(C)p.r(C)p.r(U)p.r(G)p.r(A)p.r(C)p.r(G)p.r(U)p.d(T)p.d(C)}$$$RNA1{StrandType:ss}|RNA2{StrandType:as}$” yielded a normalised inhibition (eCFP-eYFP dual reporter) of 72.2%.
“RNA1{r(A)p.r(C)p.r(U)p.r(A)p.r(C)p.r(G)p.r(A)p.r(G)p.r(G)p.r(G)p.r(C)p.r(G)p.r(G)p.r(C)p.r(U)p.r(A)p.r(C)p.r(U)p.r(U)p.d(T)p.d(T)}|RNA2{r(A)p.r(A)p.r(G)p.r(U)p.r(A)p.r(G)p.r(C)p.r(C)p.r(G)p.r(C)p.r(C)p.r(C)p.r(U)p.r(C)p.r(G)p.r(U)p.r(A)p.r(G)p.r(U)p.d(A)p.d(G)}$$$RNA1{StrandType:ss}|RNA2{StrandType:as}$” was tested, and the normalised inhibition (eCFP-eYFP dual reporter) was 73.7%.
With “RNA1{r(A)p.r(G)p.r(C)p.r(A)p.r(A)p.r(G)p.r(G)p.r(G)p.r(G)p.r(A)p.r(A)p.r(G)p.r(G)p.r(A)p.r(U)p.r(C)p.r(G)p.r(G)p.r(G)p.d(T)p.d(T)}|RNA2{r(C)p.r(C)p.r(C)p.r(G)p.r(A)p.r(U)p.r(C)p.r(C)p.r(U)p.r(U)p.r(C)p.r(C)p.r(C)p.r(C)p.r(U)p.r(U)p.r(G)p.r(C)p.r(U)p.d(C)p.d(T)}$$$RNA1{StrandType:ss}|RNA2{StrandType:as}$” the normalised inhibition (eCFP-eYFP dual reporter) was 41.2%.
For “RNA1{r(A)p.r(G)p.r(G)p.r(A)p.r(A)p.r(G)p.r(A)p.r(G)p.r(C)p.r(C)p.r(G)p.r(G)p.r(U)p.r(C)p.r(G)p.r(A)p.r(G)p.r(G)p.r(G)p.d(T)p.d(T)}|RNA2{r(C)p.r(C)p.r(C)p.r(U)p.r(C)p.r(G)p.r(A)p.r(C)p.r(C)p.r(G)p.r(G)p.r(C)p.r(U)p.r(C)p.r(U)p.r(U)p.r(C)p.r(C)p.r(U)p.d(G)p.d(C)}$$$RNA1{StrandType:ss}|RNA2{StrandType:as}$”, the normalised inhibition (eCFP-eYFP dual reporter) was 44.3%.
For “RNA1{r(A)p.r(G)p.r(G)p.r(U)p.r(G)p.r(G)p.r(A)p.r(A)p.r(C)p.r(C)p.r(C)p.r(C)p.r(A)p.r(C)p.r(G)p.r(C)p.r(A)p.r(G)p.r(A)p.d(T)p.d(T)}|RNA2{r(U)p.r(C)p.r(U)p.r(G)p.r(C)p.r(G)p.r(U)p.r(G)p.r(G)p.r(G)p.r(G)p.r(U)p.r(U)p.r(C)p.r(C)p.r(A)p.r(C)p.r(C)p.r(U)p.d(C)p.d(T)}$$$RNA1{StrandType:ss}|RNA2{StrandType:as}$”, the normalised inhibition (eCFP-eYFP dual reporter) was 72.6%.
In the case of “RNA1{r(C)p.r(A)p.r(A)p.r(G)p.r(G)p.r(C)p.r(G)p.r(C)p.r(C)p.r(G)p.r(G)p.r(C)p.r(G)p.r(C)p.r(C)p.r(C)p.r(G)p.r(A)p.r(C)p.d(T)p.d(T)}|RNA2{r(G)p.r(U)p.r(C)p.r(G)p.r(G)p.r(G)p.r(C)p.r(G)p.r(C)p.r(C)p.r(G)p.r(G)p.r(C)p.r(G)p.r(C)p.r(C)p.r(U)p.r(U)p.r(G)p.d(G)p.d(T)}$$$RNA1{StrandType:ss}|RNA2{StrandType:as}$”, the normalised inhibition (eCFP-eYFP dual reporter) is reported as 26.8%.
“RNA1{r(C)p.r(A)p.r(C)p.r(C)p.r(C)p.r(G)p.r(C)p.r(C)p.r(G)p.r(G)p.r(U)p.r(G)p.r(G)p.r(A)p.r(C)p.r(G)p.r(A)p.r(C)p.r(C)p.d(T)p.d(T)}|RNA2{r(G)p.r(G)p.r(U)p.r(C)p.r(G)p.r(U)p.r(C)p.r(C)p.r(A)p.r(C)p.r(C)p.r(G)p.r(G)p.r(C)p.r(G)p.r(G)p.r(G)p.r(U)p.r(G)p.d(G)p.d(A)}$$$RNA1{StrandType:ss}|RNA2{StrandType:as}$” gave a normalised inhibition (eCFP-eYFP dual reporter) of 25.4%.
“RNA1{r(C)p.r(A)p.r(C)p.r(U)p.r(G)p.r(G)p.r(U)p.r(G)p.r(G)p.r(A)p.r(C)p.r(G)p.r(A)p.r(G)p.r(G)p.r(G)p.r(C)p.r(G)p.r(A)p.d(T)p.d(T)}|RNA2{r(U)p.r(C)p.r(G)p.r(C)p.r(C)p.r(C)p.r(U)p.r(C)p.r(G)p.r(U)p.r(C)p.r(C)p.r(A)p.r(C)p.r(C)p.r(A)p.r(G)p.r(U)p.r(G)p.d(T)p.d(C)}$$$RNA1{StrandType:ss}|RNA2{StrandType:as}$” was tested, and the normalised inhibition (eCFP-eYFP dual reporter) was 75.5%.
For “RNA1{r(C)p.r(A)p.r(G)p.r(G)p.r(U)p.r(C)p.r(C)p.r(U)p.r(G)p.r(G)p.r(G)p.r(G)p.r(A)p.r(C)p.r(C)p.r(A)p.r(A)p.r(G)p.r(G)p.d(T)p.d(T)}|RNA2{r(C)p.r(C)p.r(U)p.r(U)p.r(G)p.r(G)p.r(U)p.r(C)p.r(C)p.r(C)p.r(C)p.r(A)p.r(G)p.r(G)p.r(A)p.r(C)p.r(C)p.r(U)p.r(G)p.d(C)p.d(T)}$$$RNA1{StrandType:ss}|RNA2{StrandType:as}$”, the normalised inhibition (eCFP-eYFP dual reporter) was 43%.
“RNA1{r(C)p.r(C)p.r(A)p.r(C)p.r(C)p.r(C)p.r(G)p.r(C)p.r(C)p.r(G)p.r(G)p.r(U)p.r(G)p.r(G)p.r(A)p.r(C)p.r(G)p.r(A)p.r(C)p.d(T)p.d(T)}|RNA2{r(G)p.r(U)p.r(C)p.r(G)p.r(U)p.r(C)p.r(C)p.r(A)p.r(C)p.r(C)p.r(G)p.r(G)p.r(C)p.r(G)p.r(G)p.r(G)p.r(U)p.r(G)p.r(G)p.d(A)p.d(G)}$$$RNA1{StrandType:ss}|RNA2{StrandType:as}$” gave a normalised inhibition (eCFP-eYFP dual reporter) of 44.2%.
“RNA1{r(C)p.r(C)p.r(C)p.r(A)p.r(A)p.r(C)p.r(A)p.r(C)p.r(C)p.r(U)p.r(U)p.r(C)p.r(U)p.r(C)p.r(G)p.r(C)p.r(C)p.r(C)p.r(G)p.d(T)p.d(T)}|RNA2{r(C)p.r(G)p.r(G)p.r(G)p.r(C)p.r(G)p.r(A)p.r(G)p.r(A)p.r(A)p.r(G)p.r(G)p.r(U)p.r(G)p.r(U)p.r(U)p.r(G)p.r(G)p.r(G)p.d(C)p.d(T)}$$$RNA1{StrandType:ss}|RNA2{StrandType:as}$” was tested, and the normalised inhibition (eCFP-eYFP dual reporter) was 45.9%.
In the case of “RNA1{r(C)p.r(C)p.r(C)p.r(C)p.r(A)p.r(U)p.r(C)p.r(G)p.r(A)p.r(C)p.r(U)p.r(A)p.r(C)p.r(C)p.r(C)p.r(A)p.r(U)p.r(A)p.r(C)p.d(T)p.d(T)}|RNA2{r(G)p.r(U)p.r(A)p.r(U)p.r(G)p.r(G)p.r(G)p.r(U)p.r(A)p.r(G)p.r(U)p.r(C)p.r(G)p.r(A)p.r(U)p.r(G)p.r(G)p.r(G)p.r(G)p.d(A)p.d(A)}$$$RNA1{StrandType:ss}|RNA2{StrandType:as}$”, the normalised inhibition (eCFP-eYFP dual reporter) is reported as 44.9%.
For “RNA1{r(C)p.r(C)p.r(G)p.r(A)p.r(G)p.r(U)p.r(A)p.r(C)p.r(U)p.r(G)p.r(C)p.r(G)p.r(U)p.r(G)p.r(A)p.r(A)p.r(G)p.r(A)p.r(C)p.d(T)p.d(T)}|RNA2{r(G)p.r(U)p.r(C)p.r(U)p.r(U)p.r(C)p.r(A)p.r(C)p.r(G)p.r(C)p.r(A)p.r(G)p.r(U)p.r(A)p.r(C)p.r(U)p.r(C)p.r(G)p.r(G)p.d(C)p.d(C)}$$$RNA1{StrandType:ss}|RNA2{StrandType:as}$”, the normalised inhibition (eCFP-eYFP dual reporter) was 59%.
“RNA1{r(C)p.r(C)p.r(U)p.r(C)p.r(C)p.r(U)p.r(G)p.r(A)p.r(A)p.r(C)p.r(G)p.r(A)p.r(G)p.r(C)p.r(C)p.r(C)p.r(A)p.r(A)p.r(C)p.d(T)p.d(T)}|RNA2{r(G)p.r(U)p.r(U)p.r(G)p.r(G)p.r(G)p.r(C)p.r(U)p.r(C)p.r(G)p.r(U)p.r(U)p.r(C)p.r(A)p.r(G)p.r(G)p.r(A)p.r(G)p.r(G)p.d(G)p.d(A)}$$$RNA1{StrandType:ss}|RNA2{StrandType:as}$” gave a normalised inhibition (eCFP-eYFP dual reporter) of 68.2%.
“RNA1{r(C)p.r(C)p.r(U)p.r(C)p.r(U)p.r(U)p.r(C)p.r(U)p.r(A)p.r(C)p.r(G)p.r(A)p.r(C)p.r(G)p.r(A)p.r(C)p.r(U)p.r(A)p.r(C)p.d(T)p.d(T)}|RNA2{r(G)p.r(U)p.r(A)p.r(G)p.r(U)p.r(C)p.r(G)p.r(U)p.r(C)p.r(G)p.r(U)p.r(A)p.r(G)p.r(A)p.r(A)p.r(G)p.r(A)p.r(G)p.r(G)p.d(T)p.d(C)}$$$RNA1{StrandType:ss}|RNA2{StrandType:as}$” showed a normalised inhibition (eCFP-eYFP dual reporter) of 82.7%.
Work on “RNA1{r(C)p.r(C)p.r(U)p.r(G)p.r(A)p.r(G)p.r(U)p.r(G)p.r(U)p.r(G)p.r(A)p.r(U)p.r(C)p.r(U)p.r(C)p.r(C)p.r(C)p.r(U)p.r(C)p.d(T)p.d(T)}|RNA2{r(G)p.r(A)p.r(G)p.r(G)p.r(G)p.r(A)p.r(G)p.r(A)p.r(U)p.r(C)p.r(A)p.r(C)p.r(A)p.r(C)p.r(U)p.r(C)p.r(A)p.r(G)p.r(G)p.d(A)p.d(G)}$$$RNA1{StrandType:ss}|RNA2{StrandType:as}$” yielded a normalised inhibition (eCFP-eYFP dual reporter) of 58.4%.
With “RNA1{r(C)p.r(G)p.r(A)p.r(C)p.r(G)p.r(A)p.r(C)p.r(U)p.r(A)p.r(C)p.r(U)p.r(A)p.r(C)p.r(G)p.r(G)p.r(G)p.r(A)p.r(C)p.r(G)p.d(T)p.d(T)}|RNA2{r(C)p.r(G)p.r(U)p.r(C)p.r(C)p.r(C)p.r(G)p.r(U)p.r(A)p.r(G)p.r(U)p.r(A)p.r(G)p.r(U)p.r(C)p.r(G)p.r(U)p.r(C)p.r(G)p.d(T)p.d(A)}$$$RNA1{StrandType:ss}|RNA2{StrandType:as}$” the normalised inhibition (eCFP-eYFP dual reporter) was 62.7%.
For “RNA1{r(C)p.r(G)p.r(A)p.r(G)p.r(G)p.r(G)p.r(C)p.r(G)p.r(A)p.r(U)p.r(C)p.r(U)p.r(A)p.r(U)p.r(A)p.r(C)p.r(A)p.r(A)p.r(C)p.d(T)p.d(T)}|RNA2{r(G)p.r(U)p.r(U)p.r(G)p.r(U)p.r(A)p.r(U)p.r(A)p.r(G)p.r(A)p.r(U)p.r(C)p.r(G)p.r(C)p.r(C)p.r(C)p.r(U)p.r(C)p.r(G)p.d(T)p.d(C)}$$$RNA1{StrandType:ss}|RNA2{StrandType:as}$”, the normalised inhibition (eCFP-eYFP dual reporter) was 72.7%.
In the case of “RNA1{r(C)p.r(G)p.r(C)p.r(C)p.r(U)p.r(C)p.r(C)p.r(G)p.r(U)p.r(G)p.r(A)p.r(U)p.r(G)p.r(U)p.r(A)p.r(C)p.r(A)p.r(G)p.r(G)p.d(T)p.d(T)}|RNA2{r(C)p.r(C)p.r(U)p.r(G)p.r(U)p.r(A)p.r(C)p.r(A)p.r(U)p.r(C)p.r(A)p.r(C)p.r(G)p.r(G)p.r(A)p.r(G)p.r(G)p.r(C)p.r(G)p.d(T)p.d(C)}$$$RNA1{StrandType:ss}|RNA2{StrandType:as}$”, the normalised inhibition (eCFP-eYFP dual reporter) is reported as 36.4%.
“RNA1{r(C)p.r(G)p.r(C)p.r(G)p.r(C)p.r(C)p.r(U)p.r(C)p.r(A)p.r(A)p.r(G)p.r(U)p.r(U)p.r(C)p.r(C)p.r(C)p.r(C)p.r(A)p.r(U)p.d(T)p.d(T)}|RNA2{r(A)p.r(U)p.r(G)p.r(G)p.r(G)p.r(G)p.r(A)p.r(A)p.r(C)p.r(U)p.r(U)p.r(G)p.r(A)p.r(G)p.r(G)p.r(C)p.r(G)p.r(C)p.r(G)p.d(C)p.d(C)}$$$RNA1{StrandType:ss}|RNA2{StrandType:as}$” showed a normalised inhibition (eCFP-eYFP dual reporter) of 51.1%.
